US20120220581A1, “IMIDAZO[1,2-b]PYRIDAZINE DERIVATIVES AND THEIR USE AS PDE10 INHIBITORS” (Janssen-Cilag, S.A., priority 2009, published 2012)
Like-named read-outs stand apart in the source and are kept apart here.

Assays:
[1] = molecular target: T1, Rat recombinant PDE10A (rPDE10A2) (Rattus norvegicus, UniProt Q9QYJ6); assay: In vitro assay PDE10A (SPA, 3H-cAMP); format: biochemical
T1 construct: inferred from the Ni metal chelate purification; made in house; host or cells: Sf9 insect cells (baculovirus)
T1 sequence (Q9QYJ6 1-794): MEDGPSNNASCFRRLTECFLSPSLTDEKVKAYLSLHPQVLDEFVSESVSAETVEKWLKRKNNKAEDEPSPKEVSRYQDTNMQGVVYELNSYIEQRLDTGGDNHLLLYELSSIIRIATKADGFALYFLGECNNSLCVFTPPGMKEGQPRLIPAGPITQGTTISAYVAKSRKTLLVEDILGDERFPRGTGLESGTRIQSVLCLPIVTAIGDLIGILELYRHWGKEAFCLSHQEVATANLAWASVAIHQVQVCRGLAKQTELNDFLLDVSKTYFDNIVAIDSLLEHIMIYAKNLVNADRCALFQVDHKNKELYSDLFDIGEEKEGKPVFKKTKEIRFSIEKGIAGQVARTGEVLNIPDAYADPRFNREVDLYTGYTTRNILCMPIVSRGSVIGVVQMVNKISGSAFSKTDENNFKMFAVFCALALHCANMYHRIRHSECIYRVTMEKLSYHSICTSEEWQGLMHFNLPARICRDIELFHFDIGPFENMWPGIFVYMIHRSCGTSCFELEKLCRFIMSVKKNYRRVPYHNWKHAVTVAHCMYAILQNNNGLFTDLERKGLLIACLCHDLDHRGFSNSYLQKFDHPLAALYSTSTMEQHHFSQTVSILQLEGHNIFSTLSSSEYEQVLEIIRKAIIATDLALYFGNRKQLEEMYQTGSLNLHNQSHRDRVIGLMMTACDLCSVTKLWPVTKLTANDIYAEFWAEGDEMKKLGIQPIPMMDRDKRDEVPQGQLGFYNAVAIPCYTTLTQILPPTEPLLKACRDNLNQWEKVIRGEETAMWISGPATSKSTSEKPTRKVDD
How it was run: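 Scintillation proximity read-out (cpm) of 3H-cAMP hydrolysis after 60 min at room temperature, with enzyme-free blanks and 1% DMSO controls. Enzyme was Sf9-expressed, Ni-sepharose-purified rat rPDE10A2; substrate 60 nM cAMP with tracer, buffer Tris pH 7.8 containing MgCl2 and EGTA.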

PDE4D3 = PDE4D3 (Homo sapiens, UniProt Q08499); assay: In vitro PDE selectivity assay (SPA), PDE4D3; format: biochemical; settings: hPDE4D3; read-out: PDE 4D3 (expressed as pIC50) (converted)
Experimental: (§1) Rat recombinant PDE10A (rPDE10A2) was expressed in Sf9 cells using a recombinant rPDE10A baculovirus construct. Cells were harvested after 48 h of infection and the rPDE10A protein was purified by metal chelate chromatography on Ni-sepharose 6FF. Tested compounds were dissolved and diluted in 100% DMSO to a concentration 100 fold of the final concentration in the assay. Compound dilutions (0.4 μl) were added in 384 well plates to 20 μl of incubation buffer (50 mM Tris pH 7.8, 8.3 mM MgCl2, 1.7 mM EGTA). 10 μl of rPDE10A enzyme in incubation buffer was added and the reaction was started by addition of 10 μl substrate to a final concentration of 60 nM cAMP and 0.008 μCi ^3H-cAMP. The reaction was incubated for 60 minutes at room temperature. After incubation, the reaction was stopped with 20 μl of stop solution consisting of 17.8 mg/ml PDE SPA (scintillation proximity assay) beads. After sedimentation of the beads during 30 minutes the radioactivity was measured in a Perkin Elmer Topcount scintillation counter and results were expressed as cpm. For blanc values the enzyme was omitted from the reaction and replaced by incubation buffer. Control values were obtained by addition of a final concentration of 1% DMSO instead of compound. The same assay principle is applied for the measurement of the affinity of the compound for other members of the PDE family with appropriate modifications in incubation buffer, substrate concentration, incubation time and stop solution. An overview of the different protocols is presented in table A. A best fit curve is fitted by a minimum sum of squares method to the plot of % of control value substracted with blanc value versus compound concentration and the half maximal inhibitory concentration (IC50) value is derived from this curve.
(§2) The compounds of the invention are generally selective for PDE10 compared to other PDEs and there are a few that also have affinity for PDE1B1, 4D3 and 5A3.

PDE5A3 = PDE5A3 (Homo sapiens, UniProt O76074); assay: In vitro PDE selectivity assay (SPA), PDE5A3; format: biochemical; settings: hPDE5A3; read-out: PDE 5A3 (expressed as pIC50) (converted)
Experimental: as §1, §2

[2] = molecular target: other members of the PDE family (Homo sapiens, UniProt O00408); assay: In vitro PDE selectivity assay (SPA), other members of the PDE family (protocols in Table A); format: biochemical; settings: hPDE2A; read-out: PDE 2A (expressed as pIC50) (converted)
Experimental: as §1, §2

[3] = molecular target: other members of the PDE family (Homo sapiens, UniProt O76083); assay: as above; format: biochemical; settings: hPDE9A; read-out: PDE 9A (expressed as pIC50) (converted)
Experimental: as §1, §2

[4] = molecular target: other members of the PDE family (Homo sapiens, UniProt Q13946); assay: as above; format: biochemical; settings: hPDE7A1; read-out: PDE 7A (expressed as pIC50) (converted)
Experimental: as §1, §2

[5] = molecular target: other members of the PDE family (Homo sapiens, UniProt Q14432); assay: as above; format: biochemical; settings: hPDE3A; read-out: PDE 3A (expressed as pIC50) (converted)
Experimental: as §1, §2

[6] = molecular target: other members of the PDE family (Homo sapiens, UniProt Q9HCR9); assay: as above; format: biochemical; settings: hPDE11A4; read-out: PDE 11A4 (expressed as pIC50) (converted)
Experimental: as §1, §2

[7] = test system: apomorphine-induced stereotypy in rats; assay: Apomorphine-induced stereotypy in rats (APO); format: in vivo; settings: Rattus norvegicus, ≧: active in 30% of the animals at the indicated dose, ≦: active in 60%
Experimental: Apomorphine (1.0 mg/kg, i.v.)-induced stereotypy (compulsive sniffing, licking, chewing) was scored every 5 min over the first hour after injection of apomorphine, following a 1 hour interval pre-treatment with the test compound. The score system was: (3) pronounced, (2) moderate, (1) slight, and (0) absent.

PDE10 = molecular target: T2, PDE10 (Rattus norvegicus, UniProt Q9QYJ6); assay: PDE10 occupancy ([3H]-MP-10, striatum); format: in vivo; settings: rat, single dose 10 mg/kg
T2 construct: from tissue; host or cells: rat brain sections, striatum (in vivo dosing, ex vivo autoradiography)
T2 sequence (Q9QYJ6 1-794): T1 sequence (Q9QYJ6 1-794)
Experimental: Dose-response or single dose experiments were performed to measure PDE10 occupancy 1 hour after subcutaneous (s.c.) or oral (p.o.) administration. Male Wistar rats (200 g) were treated by s.c. or p.o. administration of various PDE10 inhibitors. The PDE10 radioligand [^3H]-MP-10 (10 μCi/animal) was injected intravenously (i.v.) 30 minutes before sacrifice. Brains were immediately removed from the skull and rapidly frozen. Twenty μm-thick brain sections were cut using a cryostat-microtome, thaw-mounted on microscope slides and loaded in a β-imager to quantify PDE10 occupancy in the striatum.

[8] = Table 4 in vitro selectivity, read-out: PDE 10A2 (expressed as pIC50) (converted)
[9] = pIC50 corresponds to the −log IC50 expressed in mol/L, read-out: PDE10A2 pIC50 (converted)
[10] = dose at which 50% of the tested animals show the effect
[11] = po, * compound not soluble, tested orally as a suspension

other members of the PDE family (Homo sapiens, UniProt O00408), sequence (O00408 whole entry): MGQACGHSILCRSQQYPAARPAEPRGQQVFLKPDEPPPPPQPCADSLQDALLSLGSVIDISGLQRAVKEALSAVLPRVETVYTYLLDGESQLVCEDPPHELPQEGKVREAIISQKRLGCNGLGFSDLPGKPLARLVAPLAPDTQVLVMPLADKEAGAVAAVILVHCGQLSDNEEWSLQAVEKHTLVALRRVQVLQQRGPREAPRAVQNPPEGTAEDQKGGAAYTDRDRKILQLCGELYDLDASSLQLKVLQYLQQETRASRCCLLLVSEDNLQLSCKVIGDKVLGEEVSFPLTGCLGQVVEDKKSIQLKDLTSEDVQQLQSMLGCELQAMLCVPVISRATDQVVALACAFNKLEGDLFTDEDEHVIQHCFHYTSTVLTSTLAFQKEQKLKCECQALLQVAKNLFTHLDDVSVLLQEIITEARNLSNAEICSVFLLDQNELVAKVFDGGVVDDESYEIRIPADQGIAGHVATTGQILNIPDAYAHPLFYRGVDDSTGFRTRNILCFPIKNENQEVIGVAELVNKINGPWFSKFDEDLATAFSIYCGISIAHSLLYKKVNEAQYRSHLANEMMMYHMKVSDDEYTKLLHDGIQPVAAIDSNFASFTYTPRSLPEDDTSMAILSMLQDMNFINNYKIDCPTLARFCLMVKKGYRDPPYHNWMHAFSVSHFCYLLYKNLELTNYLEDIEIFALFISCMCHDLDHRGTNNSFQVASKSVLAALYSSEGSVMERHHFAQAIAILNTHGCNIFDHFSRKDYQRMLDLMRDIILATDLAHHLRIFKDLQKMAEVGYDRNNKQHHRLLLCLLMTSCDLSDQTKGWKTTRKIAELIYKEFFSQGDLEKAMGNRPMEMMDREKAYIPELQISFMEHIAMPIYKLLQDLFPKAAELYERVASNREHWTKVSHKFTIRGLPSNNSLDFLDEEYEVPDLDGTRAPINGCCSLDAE
other members of the PDE family (Homo sapiens, UniProt Q14432), sequence (Q14432 whole entry): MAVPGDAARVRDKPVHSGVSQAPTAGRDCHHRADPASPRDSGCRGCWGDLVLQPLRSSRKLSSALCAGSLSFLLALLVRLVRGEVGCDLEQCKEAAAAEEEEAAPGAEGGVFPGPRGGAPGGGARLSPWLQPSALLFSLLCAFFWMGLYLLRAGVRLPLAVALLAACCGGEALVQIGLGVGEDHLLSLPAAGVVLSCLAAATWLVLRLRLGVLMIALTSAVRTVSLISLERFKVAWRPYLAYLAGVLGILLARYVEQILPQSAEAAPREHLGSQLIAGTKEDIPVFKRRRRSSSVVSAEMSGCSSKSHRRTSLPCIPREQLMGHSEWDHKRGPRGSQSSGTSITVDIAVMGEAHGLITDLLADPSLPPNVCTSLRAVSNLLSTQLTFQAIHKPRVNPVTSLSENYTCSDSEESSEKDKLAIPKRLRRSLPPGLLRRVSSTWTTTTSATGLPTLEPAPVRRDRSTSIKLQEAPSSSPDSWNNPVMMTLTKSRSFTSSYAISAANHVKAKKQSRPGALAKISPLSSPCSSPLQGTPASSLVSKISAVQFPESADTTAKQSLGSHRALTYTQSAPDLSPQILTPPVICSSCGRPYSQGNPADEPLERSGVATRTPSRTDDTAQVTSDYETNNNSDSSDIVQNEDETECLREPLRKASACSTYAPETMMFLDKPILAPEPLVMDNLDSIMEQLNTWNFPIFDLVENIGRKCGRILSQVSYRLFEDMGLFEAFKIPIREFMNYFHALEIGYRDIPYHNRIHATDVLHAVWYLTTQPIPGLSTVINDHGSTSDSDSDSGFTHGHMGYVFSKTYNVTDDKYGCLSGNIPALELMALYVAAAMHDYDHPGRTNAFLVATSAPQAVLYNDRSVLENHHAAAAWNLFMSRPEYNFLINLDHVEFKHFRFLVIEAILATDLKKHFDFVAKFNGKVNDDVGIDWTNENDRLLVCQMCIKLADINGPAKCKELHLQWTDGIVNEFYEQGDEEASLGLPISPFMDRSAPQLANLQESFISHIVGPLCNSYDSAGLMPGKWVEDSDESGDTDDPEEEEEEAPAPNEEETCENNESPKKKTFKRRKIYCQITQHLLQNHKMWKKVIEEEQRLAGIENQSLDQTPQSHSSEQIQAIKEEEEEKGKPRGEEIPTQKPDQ
PDE4D3, sequence (Q08499 1-673 isoform Q08499-2): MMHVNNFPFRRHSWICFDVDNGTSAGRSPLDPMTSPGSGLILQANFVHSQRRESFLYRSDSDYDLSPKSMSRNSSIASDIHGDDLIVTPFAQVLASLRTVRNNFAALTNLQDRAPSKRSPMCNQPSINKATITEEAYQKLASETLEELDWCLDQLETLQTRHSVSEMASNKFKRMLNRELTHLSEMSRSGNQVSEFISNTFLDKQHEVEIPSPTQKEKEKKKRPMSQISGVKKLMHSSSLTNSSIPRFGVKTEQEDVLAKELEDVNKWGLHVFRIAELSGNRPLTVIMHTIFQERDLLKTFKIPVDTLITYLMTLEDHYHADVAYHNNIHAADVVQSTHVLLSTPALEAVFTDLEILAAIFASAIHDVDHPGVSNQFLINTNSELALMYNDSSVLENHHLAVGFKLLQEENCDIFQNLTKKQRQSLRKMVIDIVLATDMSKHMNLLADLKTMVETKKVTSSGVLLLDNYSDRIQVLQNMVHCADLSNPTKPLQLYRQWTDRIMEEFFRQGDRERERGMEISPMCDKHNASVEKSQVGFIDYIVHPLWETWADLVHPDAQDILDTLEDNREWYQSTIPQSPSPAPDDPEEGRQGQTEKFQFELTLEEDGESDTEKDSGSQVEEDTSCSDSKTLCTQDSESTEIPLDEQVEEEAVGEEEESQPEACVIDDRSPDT
other members of the PDE family (Homo sapiens, UniProt O76083), sequence (O76083 whole entry): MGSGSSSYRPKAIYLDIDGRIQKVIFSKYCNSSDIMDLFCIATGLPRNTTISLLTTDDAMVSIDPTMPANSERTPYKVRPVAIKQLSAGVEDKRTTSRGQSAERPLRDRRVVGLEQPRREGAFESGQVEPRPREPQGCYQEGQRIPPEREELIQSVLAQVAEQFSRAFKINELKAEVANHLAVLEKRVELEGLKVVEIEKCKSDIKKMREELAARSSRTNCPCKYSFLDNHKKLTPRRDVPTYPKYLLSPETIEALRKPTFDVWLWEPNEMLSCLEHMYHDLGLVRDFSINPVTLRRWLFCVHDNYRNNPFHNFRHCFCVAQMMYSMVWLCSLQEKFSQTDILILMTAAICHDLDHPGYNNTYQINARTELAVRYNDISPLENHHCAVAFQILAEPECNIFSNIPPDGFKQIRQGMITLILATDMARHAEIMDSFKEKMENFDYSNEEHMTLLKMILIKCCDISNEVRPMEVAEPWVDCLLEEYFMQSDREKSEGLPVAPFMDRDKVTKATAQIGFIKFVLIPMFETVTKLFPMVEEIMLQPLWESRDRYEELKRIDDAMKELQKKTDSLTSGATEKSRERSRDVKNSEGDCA
other members of the PDE family (Homo sapiens, UniProt Q13946), sequence (Q13946 whole entry): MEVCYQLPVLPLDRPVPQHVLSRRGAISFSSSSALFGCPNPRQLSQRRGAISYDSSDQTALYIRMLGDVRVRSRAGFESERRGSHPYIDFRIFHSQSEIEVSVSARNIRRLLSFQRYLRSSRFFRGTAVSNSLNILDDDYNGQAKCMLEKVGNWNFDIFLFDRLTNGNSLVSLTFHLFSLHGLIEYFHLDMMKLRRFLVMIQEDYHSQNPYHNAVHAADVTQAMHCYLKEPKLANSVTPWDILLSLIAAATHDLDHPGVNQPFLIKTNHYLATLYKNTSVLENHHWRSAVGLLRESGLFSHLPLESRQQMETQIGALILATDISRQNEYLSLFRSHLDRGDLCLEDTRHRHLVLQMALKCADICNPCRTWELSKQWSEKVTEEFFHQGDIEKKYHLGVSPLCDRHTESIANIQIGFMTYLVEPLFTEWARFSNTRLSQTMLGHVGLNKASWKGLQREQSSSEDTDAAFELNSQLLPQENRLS
other members of the PDE family (Homo sapiens, UniProt Q9HCR9), sequence (Q9HCR9 whole entry): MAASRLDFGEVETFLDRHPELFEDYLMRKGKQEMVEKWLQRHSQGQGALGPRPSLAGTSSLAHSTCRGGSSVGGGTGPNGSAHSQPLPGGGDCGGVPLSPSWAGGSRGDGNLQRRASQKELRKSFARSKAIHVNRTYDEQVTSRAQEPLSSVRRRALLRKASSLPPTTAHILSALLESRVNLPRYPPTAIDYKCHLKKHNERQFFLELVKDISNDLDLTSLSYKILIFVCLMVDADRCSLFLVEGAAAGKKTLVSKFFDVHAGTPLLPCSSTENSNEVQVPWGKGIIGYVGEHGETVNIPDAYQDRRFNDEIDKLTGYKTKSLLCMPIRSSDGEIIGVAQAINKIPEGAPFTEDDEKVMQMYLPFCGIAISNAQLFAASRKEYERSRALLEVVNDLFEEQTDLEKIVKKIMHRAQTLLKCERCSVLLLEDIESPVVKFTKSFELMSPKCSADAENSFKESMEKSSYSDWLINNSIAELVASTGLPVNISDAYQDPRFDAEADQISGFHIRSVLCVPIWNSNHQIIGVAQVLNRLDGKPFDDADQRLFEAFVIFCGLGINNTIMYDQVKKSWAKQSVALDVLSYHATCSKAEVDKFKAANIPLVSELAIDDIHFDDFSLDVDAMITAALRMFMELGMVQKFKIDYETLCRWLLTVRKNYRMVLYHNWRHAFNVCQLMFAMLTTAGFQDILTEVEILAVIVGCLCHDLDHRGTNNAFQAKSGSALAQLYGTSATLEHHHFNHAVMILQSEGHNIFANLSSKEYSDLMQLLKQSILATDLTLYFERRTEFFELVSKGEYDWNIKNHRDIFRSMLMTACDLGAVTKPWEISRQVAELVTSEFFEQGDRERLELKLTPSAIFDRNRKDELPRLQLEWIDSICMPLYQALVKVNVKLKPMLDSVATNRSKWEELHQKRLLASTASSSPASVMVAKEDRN

Compound | IC50 [1, 8] | IC50 [1, 9] | IC50 (PDE4D3) | IC50 (PDE5A3) | IC50 [2] | IC50 [3] | IC50 [4] | IC50 [5] | IC50 [6] | receptor occupancy at 10 mg/kg (PDE10; sc, subcutaneous, read-out: SD sc % occupancy at 10 mg/kg) | receptor occupancy at 10 mg/kg (PDE10; oral, read-out: SD po % occupancy at 10 mg/kg) | ED50 [7, 10] | ED50 [7, 11]
COCCc1ccc(-c2c(C3CC3)nc3c(-c4ccncc4)ccnn23)cn1 [compound 10, 2-cyclopropyl-3-[6-(2-methoxyethyl)-3-pyridinyl]-8-(4-pyridinyl)-imidazo[1,2-b]pyridazine] | 0.0115 µM | 0.0115 µM | 1.26 µM | 1.29 µM | 6.61 µM | > 10 µM | > 10 µM | > 10 µM | 1.41 µM |  |  | 1.2 mg/kg | 
COC(C)(C)COc1ccc(-c2c(C)nc3c(N4CCOCC4)ccnn23)cn1 [compound 18, 3-[6-(2-methoxy-2-methylpropoxy)-3-pyridinyl]-2-methyl-8-(4-morpholinyl)-imidazo[,2-b]pyridazine] | 0.17 µM | 0.17 µM | > 10 µM |  | > 10 µM | > 10 µM | > 10 µM | > 10 µM | > 10 µM | 46% |  | 5 mg/kg | 
Cc1nc2c(N3CCOCC3)ccnn2c1-c1ccnc(N2CCOCC2)c1 [compound 91, 2-methyl-8-(4-morpholinyl)-3-[2-(4-morpholinyl)-4-pyridinyl]-imidazo[1,2-b]pyridazine] | 0.0468 µM | 0.0468 µM | > 10 µM | 8.51 µM | > 10 µM | > 10 µM | > 10 µM | > 10 µM | > 10 µM |  |  | 1.2 mg/kg | 
Cc1nc2c(N3CCOCC3)ccnn2c1-c1cnn(C2CCOCC2)c1 [compound 117, 2-methyl-8-(4-morpholinyl)-3-[1-(tetrahydro-2H-pyran-4-yl)-1H-pyrazol-4-yl]-imidazo[1,2-b]pyridazine] | 0.0977 µM | 0.0977 µM | > 10 µM | > 10 µM | > 10 µM | > 10 µM | > 10 µM | > 10 µM |  |  |  |  | 
Cc1nc2c(N3CCOCC3)ccnn2c1-c1cnn(CC2CC2(F)F)c1 (stereo not drawn) [compound 118] | 0.0501 µM | 0.0501 µM | > 10 µM |  | > 10 µM | > 10 µM | > 10 µM | > 10 µM | > 10 µM |  | 4% |  | ≤ 10 mg/kg
Cc1nc2c(N3CCOCC3)cc(Cl)nn2c1-c1cnn(CC(F)(F)F)c1 [compound 146, 6-chloro-2-methyl-8-(4-morpholinyl)-3-[1-(2,2,2-trifluoroethyl)-1H-pyrazol-4-yl]-imidazo[1,2-b]pyridazine] | 0.0525 µM | 0.0525 µM | > 10 µM | 1.91 µM | > 10 µM | > 10 µM | 8.51 µM | > 10 µM | > 10 µM |  |  |  | 

Continued, in another order:

IC50 [1, 8] | IC50 [1, 9] | IC50 (PDE4D3) | IC50 (PDE5A3) | IC50 [2] | IC50 [3] | IC50 [4] | IC50 [5] | IC50 [6] | receptor occupancy at 10 mg/kg (PDE10; sc, subcutaneous, read-out: SD sc % occupancy at 10 mg/kg) | receptor occupancy at 10 mg/kg (PDE10; oral, read-out: SD po % occupancy at 10 mg/kg) | Compound | ED50 [7, 10] | ED50 [7, 11]
0.0437 µM | 0.0437 µM | > 10 µM | 4.47 µM | 1.2 µM | > 10 µM | > 10 µM | > 10 µM | > 10 µM |  |  | COC(C)(C)CCc1ccc(-c2c(C)nc3c(N4CCOCC4)ccnn23)cn1 [compound 29, 3-[6-(3-methoxy-3-methylbutyl)-3-pyridinyl]-2-methyl-8-(4-morpholinyl)-imidazo[1,2-b]pyridazine] | ≥ 2.5 mg/kg | 
0.0776 µM | 0.0776 µM | > 10 µM | > 10 µM | > 10 µM | > 10 µM | > 10 µM | > 10 µM | > 10 µM |  |  | Cc1nc2c(N3CCOCC3)ccnn2c1-c1ccc(C(C)C)nc1 [compound 32, 2-methyl-3-[6-(1-methylethyl)-3-pyridinyl]-8-(4-morpholinyl)-imidazo[1,2-b]pyridazine] | 5 mg/kg | 
0.0776 µM | 0.0776 µM | > 10 µM | > 10 µM | > 10 µM | > 10 µM | > 10 µM | > 10 µM | > 10 µM |  |  | Cc1nc2c(N3CCOCC3)ccnn2c1-c1ccc(C2CC2)nc1 [compound 33, 3-(6-cyclopropyl-3-pyridinyl)-2-methyl-8-(4-morpholinyl)-imidazo[1,2-b]pyridazine] |  | ≥ 2.5 mg/kg
